This is an account of results in patent publication US12178878B2, “Amyloid peptide scaffolds coordinate with Alzheimer's disease drugs” (The University of Massachusetts, priority 2018, dated 2024).

SMILES strings stand for the structures. Read-outs that look alike come from different tables or passages of the source.

The subject of assay [1] is […] (SEQ ID NO: 3) amyloid peptide. Nature of the assay: Amyloid peptide/inhibitor coordination in dilute solution (1 mg/mL), drug captured after pellet washings. In kind it is binding. To be noted: FYTGAIIGNYF 1 mg/mL, 150 μM inhibitor loaded, by MS. As for the experimental part: Amyloid Peptide/Inhibitor Coordination Studies in Dilute Solutions. […] Subsequently, 1 mL of DI water was added to wash the pellet (followed by vortexing until obtaining a homogenous dispersion) in order to remove any unbound inhibitor. The samples were then centrifuged again at the same conditions so as to pelletize the amyloid materials, and the supernatant was decanted. Another 1 mL of DI water was then added into the pellet, the mixture was vortexed, and the physically bound inhibitor into the dilute amyloid peptide dispersions was quantified by UV-Vis between 200-600 nm and MS. This step is denoted as wash 1 in our study. Two additional pellet purification cycles were realized with replacement of the decanted volume each time with 1 mL of fresh DI water (denoted as wash 2 and wash 3 respectively). The inhibitor-containing peptides amyloids were normalized at 400 nm over the respective no inhibitor-containing amyloid peptides at the specific washing step, and the measured inhibitor peak values (at 315 nm and 323 nm) were subtracted from that of the amyloid peptide carriers at the same wavelength and concentration. The amount of inhibitors coordinated with the amyloid peptide carriers was quantified based on a calibration curve by both UV-Vis and MS.
The peak at 315 nm was selected for inhibitor quantification due the absence of peaks at that range for both peptides. […] However, the peak at 315 nm was selected for inhibitor quantification, and the following equation was used for both peptides: A315=A315 ([…]/Donepezil)−A315 ([…])
The peak at 323 nm was used for inhibitor quantification due the absence of peaks at that range for both peptides.

In assay [2] the test system is […] (SEQ ID NO: 4) amyloid peptide. In kind it is binding. To be noted: YFTGAIIGNFY 1 mg/mL, 150 μM inhibitor loaded, by MS. The procedure:
Amyloid Peptide/Inhibitor Coordination Studies in Dilute Solutions. […]. As a negative control, 1 mL of 0.1 M PBS buffer was added. The mixtures were vortexed and sonicated to homogenously disperse any solid aggregates and stirred overnight to allow for coordination. The mixtures were transferred to 2 mL Eppendorf tubes and centrifuged for 15 mins at 4,400 rpm (14° C.) to pelletize the amyloid bound-inhibitors, and the supernatant was decanted. Subsequently, 1 mL of DI water was added to wash the pellet (followed by vortexing until obtaining a homogenous dispersion) in order to remove any unbound inhibitor. The samples were then centrifuged again at the same conditions so as to pelletize the amyloid materials, and the supernatant was decanted. Another 1 mL of DI water was then added into the pellet, the mixture was vortexed, and the physically bound inhibitor into the dilute amyloid peptide dispersions was quantified by UV-Vis between 200-600 nm and MS. This step is denoted as wash 1 in our study. Two additional pellet purification cycles were realized with replacement of the decanted volume each time with 1 mL of fresh DI water (denoted as wash 2 and wash 3 respectively). The inhibitor-containing peptides amyloids were normalized at 400 nm over the respective no inhibitor-containing amyloid peptides at the specific washing step, and the measured inhibitor peak values (at 315 nm and 323 nm) were subtracted from that of the amyloid peptide carriers at the same wavelength and concentration. The amount of inhibitors coordinated with the amyloid peptide carriers was quantified based on a calibration curve by both UV-Vis and MS.
. The peak at 315 nm was selected for inhibitor quantification due the absence of peaks at that range for both peptides. […]. However, the peak at 315 nm was selected for inhibitor quantification, and the following equation was used for both peptides: A315=A315 ([…]/Donepezil)−A315 ([…])
[…]. The peak at 323 nm was used for inhibitor quantification due the absence of peaks at that range for both peptides. […].

For assay [3], the system named is […] (SEQ ID NO: 3) amyloid peptide. The assay is described as follows: Coordination at higher peptide concentration (amyloid gel, 5 mg/mL), inhibitor capturing. In kind it is binding. To be noted: FYTGAIIGNYF gel 5 mg/mL, 1000 μM inhibitor solution added, by MS. As for the experimental part: Amyloid Fibrils Preparation and Characterization. For the formation of fibrils, the amyloid peptides were dispersed in DI water at a 10 mg/ml, vortexed, heated at 60° C. for 30 sec, and sonicated for 15 mins (this cycle was repeated 10 times overall), and finally left overnight at room temperature to form a hydrogel. […] That was confirmed with Field Emission Scanning Electron Microscopy (FESEM) and Congo Red staining (CR).
Coordination Studies at Higher Peptide Concentrations and Inhibitor Capturing. […] (SEQ ID NO: 4) or […] (SEQ ID NO: 3) amyloid peptide gels (10 mg/mL, 1 mL volume) and was left to physically complex under stirring overnight (the final peptide concentration was diluted to 5 mg/mL). A control using 1 mL of 0.1 M PBS (no inhibitor) was also prepared. The complexed amyloid/inhibitor materials were then transferred to 5 mL conical Eppendorf tubes, and centrifuged for 15 mins at 4,400 rpm (14° C.). The supernatant was decanted, and 2 mL of DI water were subsequently added to wash the pellet (followed by vortexing until obtaining a homogenous dispersion) in order to remove any unbound inhibitor. The samples were then centrifuged again at the same conditions so as to pelletize the amyloid materials, and the supernatant was decanted. Another 2 mL of DI water were then added into the pellet, the mixture was vortexed, and the physically bound inhibitor into the amyloid peptides was quantified by UV-Vis between 200-600 nm and MS. This step is denoted as wash 1 in our study. Two additional pellet purification cycles were realized with replacement of the decanted volume each time with 2 mL of fresh DI water (denoted as wash 2 and wash 3 respectively). The inhibitor-containing amyloid peptides were normalized at 400 nm over the respective no inhibitor-containing ones at the specific washing step.

In assay [4] the test system is […] (SEQ ID NO: 4) amyloid peptide. In kind it is binding. Particulars: YFTGAIIGNFY gel 5 mg/mL, 1000 μM inhibitor solution added, by MS. As for the experimental part:
Amyloid Fibrils Preparation and Characterization. For the formation of fibrils, the amyloid peptides were dispersed in DI water at a 10 mg/ml, vortexed, heated at 60° C. for 30 sec, and sonicated for 15 mins (this cycle was repeated 10 times overall), and finally left overnight at room temperature to form a hydrogel.
A control using 1 mL of 0.1 M PBS (no inhibitor) was also prepared. The complexed amyloid/inhibitor materials were then transferred to 5 mL conical Eppendorf tubes, and centrifuged for 15 mins at 4,400 rpm (14° C.). The supernatant was decanted, and 2 mL of DI water were subsequently added to wash the pellet (followed by vortexing until obtaining a homogenous dispersion) in order to remove any unbound inhibitor. The samples were then centrifuged again at the same conditions so as to pelletize the amyloid materials, and the supernatant was decanted. Another 2 mL of DI water were then added into the pellet, the mixture was vortexed, and the physically bound inhibitor into the amyloid peptides was quantified by UV-Vis between 200-600 nm and MS. This step is denoted as wash 1 in our study. Two additional pellet purification cycles were realized with replacement of the decanted volume each time with 2 mL of fresh DI water (denoted as wash 2 and wash 3 respectively). The inhibitor-containing amyloid peptides were normalized at 400 nm over the respective no inhibitor-containing ones at the specific washing step.

The next assay concerns the target AChE (Homo sapiens, UniProt P22303). Particulars: in vitro, Ellman's assay, among marketed AD drugs; cited from earlier work.

Chain of AChE (P22303 32-614): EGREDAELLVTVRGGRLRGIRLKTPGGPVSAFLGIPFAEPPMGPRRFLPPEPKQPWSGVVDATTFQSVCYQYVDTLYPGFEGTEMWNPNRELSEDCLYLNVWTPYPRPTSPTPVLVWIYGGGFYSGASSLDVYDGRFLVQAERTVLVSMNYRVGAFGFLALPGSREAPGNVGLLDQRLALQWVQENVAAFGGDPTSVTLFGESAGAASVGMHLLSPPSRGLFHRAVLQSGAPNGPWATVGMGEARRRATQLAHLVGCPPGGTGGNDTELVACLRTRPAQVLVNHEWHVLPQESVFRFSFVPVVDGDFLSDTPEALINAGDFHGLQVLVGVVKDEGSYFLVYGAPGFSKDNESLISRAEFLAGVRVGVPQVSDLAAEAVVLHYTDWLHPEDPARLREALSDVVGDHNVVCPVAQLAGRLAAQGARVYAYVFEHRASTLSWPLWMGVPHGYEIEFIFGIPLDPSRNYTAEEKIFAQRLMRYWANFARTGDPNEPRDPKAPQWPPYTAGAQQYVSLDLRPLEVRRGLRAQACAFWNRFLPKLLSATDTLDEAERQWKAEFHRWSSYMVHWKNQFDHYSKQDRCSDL

For the compound `CC12CC3CC(C)(C1)CC(N)(C3)C2` [memantine], the “AD compound captured, Wash 1” value in assay [1] (1st pellet wash) was determined as 18 ± 3 µM; in assay [2] (1st pellet wash), 8 ± 1 µM; in assay [3] (1st pellet wash), 32 ± 2 µM; in assay [4] (1st pellet wash), 21 ± 1 µM. The “AD compound captured, Wash 2” value in assay [1] (2nd pellet wash) was 5 ± 2 µM; in assay [2] (2nd pellet wash) it was 3 ± 1 µM; in assay [3] (2nd pellet wash) it was 16 ± 2 µM; in assay [4] (2nd pellet wash, room temperature) it was 10 ± 1 µM. The “AD compound captured, Wash 3” value was 4 ± 2 µM in assay [1] (3rd pellet wash); 2 ± 1 µM in assay [2] (3rd pellet wash); 12 ± 3 µM in assay [3] (3rd pellet wash); 8 ± 1 µM in assay [4] (3rd pellet wash, room temperature). Further, on AChE, the “inhibition towards AChE” value is reported as “negligible inhibition”.
